Assays:
[1] = test system: natural antibody function; test: Pig to cynomolgus kidney transplants; type: in vivo; conditions: 6 mg/kg/day, i.v.
From the text: As is discussed herein, contacting the recipient's blood with galactosyl (α1, 3) galactose epitopes can be used to deplete the host of natural antibodies. Other methods for depleting or otherwise inactivating natural antibodies can be used with any of the methods described herein. For example, drugs which inactivate natural antibodies, e.g., deoxyspergualin (DSG) (Bristol), or anti-IgM antibodies, can be administered to the recipient of an allograft or a xenograft. One or more of, DSG (or similar drugs), anti-IgM antibodies, and hemoperfusion, can be used to inactivate recipient natural antibodies in methods of the invention.

[2] = test system: human natural antibodies (IgG, IgM) binding to porcine PBMC; test: Competitive binding assay, flow cytometry: human natural antibody binding to porcine PBMC; conditions: human serum pre-incubated with competitor at 1 mg/ml
Protocol: FIG. 1 (Panels A, B, C, D) is a set of graphs which show α1,3Gal/BSA-inhibition of human natural antibody binding to pig cells. Human serum (20 μl) was preincubated with αGal/BSA (Panels A,C) or bovine thyroglobulin (Panels B,D) at concentrations of 1,000 μg/ml (b) or 0.1 μg/ml (c) prior to staining of porcine peripheral blood mononuclear cells (pPBMCs). The negative control (a) consisted of pPBMC plus an equivalent volume of galactosyl α(1, 3) galactose reactive natural antibody-depleted human serum (XNA^−) while the positive control was 20 μl human serum without competitor (d). Following incubation with the human serum, the cells were stained with either anti-human IgG (Panels A,B) or anti-human IgM (Panels C,D).
Human sera were obtained from healthy adult volunteers. Individual samples were isolated and stored at 4° C. for short periods or aliquoted and stored at −70° C. Porcine peripheral blood mononuclear cells (pPBMC) were isolated from heparinized whole blood obtained from an inbred miniature swine herd and resuspended in flow cytometric analysis staining buffer (Hank's Buffered Saline Solution (HBSS), 2.0% fetal calf serum, 0.04% sodium azide (Sigma Chemical Co., St. Louis, Mo.)) to a final concentration of 1×10^7 pPBMC/ml.
Human serum (15 μl) was pre-incubated with serially diluted αGal/BSA, bovine thyroglobulin (Sigma Chemical Co., St. Louis, Mo.) or BSA (Fisher Scientific, Pittsburgh, Pa.) at final concentrations of 1 mg/ml to 1 ng/ml for 90 minutes at 4° C. with gentle rocking. Fifty μl of pPBMC (5×10^5 cells) was incubated with 50 μl of human serum plus competitor for 90 minutes at 4° C. The positive control consisted of staining with human serum alone and the negative control was human serum depleted of natural antibodies (XNA^−). The cells were processed for all subsequent steps in the same way as for direct flow cytometric analysis (DerSimonian, H. M. et al. (1993) J. Exp. Med. 177:1623).

[3] = test system: galactosyl α(1, 3) galactose-reactive natural antibodies in human serum; test: Competitive ELISA with αGal/BSA or bovine thyroglobulin coated plates; type: binding
Protocol: In order to facilitate the detection of galactosyl α(1, 3) galactose-reactive antibodies in human serum samples, an ELISA system using αGal/BSA as the antigen was used. αGal/BSA (provided by BioTransplant, Inc.) was used to coat 96 well polystyrene plates (Costar) at a concentration of 10 μg/ml in PBS overnight at 4° C. Plates coated with BSA were included to control for background reactivity to BSA. Wells were blocked for 1-2 hours at room temperature with 1% BSA in TBS (100 mM Tris-HCl, pH 7.5, 0.9% NaCl). All plates were washed three times with 0.1% Tween-20 in TBS (TBS/Tween) using a Skatron plate washer (Skatron Instruments, Inc., Sterling, Va.). Serial dilutions of human serum from a single donor were used as the standard positive controls. XNA^− (see Example 3) was used as the negative control. Samples were aliquoted in triplicate and allowed to incubate at room temperature for 1 hour. After washing three times with TBS/Tween, the plates were incubated with alkaline phosphatase conjugated mouse monoclonal anti-human IgG or IgM antibody (Sigma Chemical Co., St. Louis, Mo.) for 1-2 hours at room temperature in the dark. The plates were washed and developed with Sigma 104 alkaline phosphatase substrate tablets in carbonate buffer (0.203 g MgCl2, 2.2 g Na2CO3, 2.43 g. NaHCO3 in 1 L. water). The amount of colored product was measured at 405 nm using the SLT Lab Instruments 340 ATC ELISA reader. For competitive ELISA, bovine thyroglobulin and αGal/BSA were serially diluted ten-fold in TBS to final concentrations of 1 mg/ml to 1 ng/ml. Equal volumes of human serum and competitor were combined and incubated for 1 hour at 4° C. The competition reactions were then aliquoted to antigen coated plates and incubated for 1 hour at room temperature. The plates were washed and incubated with alkaline phosphatase conjugated mouse monoclonal anti-human IgG or IgM antibody (Sigma Chemical Co., St. Louis, Mo.) for 1 hour at room temperature. The wells were washed and developed with Sigma 104 alkaline phosphatase substrate. All samples were analyzed in triplicate.

[4] = Stability of αGal/BSA in the ELISA system in the presence of human serum; type: physicochemical; conditions: 37° C. for up to 24 hours
Protocol: To ensure that the galactosyl α(1, 3) galactose epitope was stable under these conditions, experiments were performed to determine if there was any detectable hydrolysis of the galactosyl α(1, 3) galactose carbohydrate moiety in the presence of human serum.

Molecule	suppression of natural antibody function [1]	decrease in IgG binding to pig cells (median fluorescence intensity) [2]	reduction of IgM binding to pig cells (median fluorescence intensity) [2]	concentration necessary to block binding of αGal-reactive natural antibodies to αGal/BSA ([3]; competitive ELISA, αGal/BSA as antigen)	inhibition of binding of serum natural antibodies to αGal/BSA ([3]; pre-incubation of serum with competitor)	stability (hydrolysis of the galactosyl α(1, 3) galactose moiety) in the ELISA system [4]	concentration that completely inhibited binding of human IgG and IgM to bovine thyroglobulin ([3]; competitive ELISA, bovine thyroglobulin as antigen)
N=C(N)NCCCCCCC(=O)NC(O)C(=O)NCCCCNCCCN (stereo not drawn) [DSG, deoxyspergualin]	useful in suppressing natural antibody function						
Bovine thyroglobulin: galactosyl α(1, 3) galactose containing molecule, estimated eleven naturally occurring residues, 300 kD (Sigma)		79%	66%	100-1,000 μg/ml	completely inhibited		
αGal/BSA: synthetic conjugate with fifteen to thirty-nine αGal moieties per BSA molecule, 70 kD		84%	94%			stable	1 µg/mL
